Results on 101 compounds are retold here after ChEMBL document CHEMBL3507680, “University of Dundee, Gates Library screen for HepG2 cell viability”.

The series in a line: Human HepG2 cell viability assay in 384 well format. The format is toxicity, cell-based. The arrangement: dose 125 nL, time 70.5 hour; concentration not given beside the values. The settings on record: HepG2 cells, read-out: Inhibition.

Molecules are shown by their SMILES.

Take `Cc1nccn1-c1ccc(=O)n(CCNC(=O)c2ccncc2)n1`: the cytotoxicity at 70.5 h was -7.2%. In the case of `O=c1ccc(-n2ccnc2)nn1CCNS(=O)(=O)c1ccc(Br)cc1` it was 15.1%.

Regarding `O=c1ccc(-n2ccnc2)nn1CCNS(=O)(=O)c1ccc(F)c(Cl)c1`, the cytotoxicity at 70.5 h was -1.07%. With `Cn1nnn(-c2ccc(NS(=O)(=O)c3ccc(Br)cc3)cc2)c1=O`, the cytotoxicity at 70.5 h is -2.26%. In the case of `O=C(c1nnn(-c2ccc(F)cc2)n1)N(CCO)Cc1ccccc1` it was -1.48%. Turning to `CC1CCCN(C(=O)c2nnn(-c3ccc(C(F)(F)F)cc3)n2)C1` (stereo unspecified), the cytotoxicity at 70.5 h was 1.4%.

With `O=C(c1nnn(-c2ccc(C(F)(F)F)cc2)n1)N1CCC(O)CC1`, the cytotoxicity at 70.5 h is -2.52%. In the case of `O=C1CN(C(=O)c2nnn(-c3ccc(C(F)(F)F)cc3)n2)CCN1` it was -14.4%. Turning to `COCCNC(=O)NC1(c2nc(C)no2)CCCCC1`, the cytotoxicity at 70.5 h was -0.559%. Turning to `COc1cccc(CNC(=O)NC2(c3nc(C)no3)CCCCC2)c1`, the cytotoxicity at 70.5 h came out at 13.3%. Then `O=C(NC1(c2nc(C3CC3)no2)CCCCC1)c1cccnc1O`, with 3.05%; and `COc1nn(C)cc1C(=O)N1CCC(c2nnc(-c3ccsc3)o2)CC1`, with -6.31%.

In the case of `Cc1nnc(C2CCN(C(=O)c3ccc4[nH]ccc4c3)CC2)s1`, the cytotoxicity at 70.5 h was -5.35%. As to `CCCC(=O)N1CCC(c2nn(C)c(=O)n2-c2ccccc2)CC1`, the cytotoxicity at 70.5 h is -10.4%. Then `CCSc1ccccc1C(=O)NCCn1nc(C(F)(F)F)n(C)c1=O`, with -4.82%. For the compound `Cn1c(C(F)(F)F)nn(CCNC(=O)c2ccccn2)c1=O`, the cytotoxicity at 70.5 h is -7.74%. As for `COCCNC(=O)NCCn1nc(C(F)(F)F)n(C)c1=O`, the cytotoxicity at 70.5 h is -4.7%. For the compound `O=C(CN1CCC(c2nnc(C(F)(F)F)o2)CC1)Nc1cccc(Cl)c1`, the cytotoxicity at 70.5 h was 19.3%. Then `CNC(=O)c1nnn(-c2ccccc2F)c1-c1ccccn1`, with 0.41%; and `CN1CCN(c2cc(NC(=O)c3cnccn3)ncn2)CC1`, with 0.507%; and `O=C(Cc1ccccc1Cl)Nc1cc(N2CCCC2)ncn1`, with -0.171%. Then `Cc1ccccc1NC(=O)Nc1cc(N2CCCC2)ncn1`, with 10.8%. Take `CC1CCN(c2cc(NC(=O)C3CC3)ncn2)CC1`: the cytotoxicity at 70.5 h turned out to be 0.806%. Then `Cc1cc(=O)n(CCNS(=O)(=O)c2ccccc2)cn1`, with -1.2%; and `O=C(NCCn1cnc(C2CCCC2)cc1=O)NCc1cccs1`, with -7.11%. On to `Cc1ncn(CCNC(=O)Nc2ccccc2)c(=O)c1C`, for which the cytotoxicity at 70.5 h is 21.4%. Then `Cn1nc(N2CCCC(C(=O)Nc3nc4ccccc4s3)C2)ccc1=O` (stereo unspecified), with 1.88%; and `CCOc1cc(NC(=O)C2CC(=O)N(c3cccc(OC)c3)C2)ncn1` (stereo unspecified), with -2.94%; and `O=C(c1ccc(F)cc1F)N(CC(F)(F)F)C1CCOCC1`, with -4.08%.

As for `Cn1nc(C(=O)N2CC(Oc3nc4c(Cl)cccc4s3)C2)ccc1=O`, the cytotoxicity at 70.5 h was -8.11%.

`COc1cccc2sc(OC3CN(C(=O)C4=COCCO4)C3)nc12`: the cytotoxicity at 70.5 h was -8.14%. In the case of `COCC(C)(O)CNC(=O)c1cc(-c2cc(OC)ccc2OC)nn1C` (stereo unspecified) it was 6.52%.

Turning to `O=C(NCCOc1ccccc1)NCC(O)c1cccs1` (stereo unspecified), the cytotoxicity at 70.5 h was -11.8%. As for `CCOCC(=O)NCCc1nc(C2CC2)cc(C(F)(F)F)n1`, the cytotoxicity at 70.5 h was -4.83%.

Take `CC(=O)NCc1cc(-c2cccs2)n(C2CCCC2)n1`: the cytotoxicity at 70.5 h is -2.19%. Then `COCCNC(=O)NCc1cc(-c2cccs2)n(C2CCCC2)n1`, with -8.68%; and `COCCNC(=O)NCc1cc(-c2ccncc2)n(C2CCCC2)n1`, with -13.6%; and `O=C1CCSCC(C(=O)NCc2nc(-c3ccccc3)no2)N1` (stereo unspecified), with -11.9%. In the case of `Cc1noc(CNC(=O)C2CSCCC(=O)N2)n1` (stereo unspecified) it was -12.9%; in that of `Cn1nnc2c(N3CC(C(=O)NCCC4=CCCCC4)C3)ncnc21`, -18.5%. As to `Cn1nnc2c(N3CC(C(=O)NCc4cccs4)C3)ncnc21`, the cytotoxicity at 70.5 h is -1.73%. `O=C(O)CC(CC(=O)NCc1ccsc1)c1cccs1` (stereo unspecified): the cytotoxicity at 70.5 h is -5.7%. Then `Cn1cccc1CN(C(=O)CC(CC(=O)O)c1cccs1)C1CC1` (stereo unspecified), with -9.4%.

On to `Cc1ccc(S(=O)(=O)NCC(O)c2ccoc2)s1` (stereo unspecified), for which the cytotoxicity at 70.5 h was -12.5%. Turning to `O=S(=O)(NCC(O)c1ccoc1)c1ccc(Cl)s1` (stereo unspecified), the cytotoxicity at 70.5 h came to 23%. In the case of `O=S(=O)(NCC(O)c1ccoc1)c1ccc(Br)s1` (stereo unspecified) it was -1.32%.

With `O=C(NCc1cccs1)NCC(O)c1ccoc1` (stereo unspecified), the cytotoxicity at 70.5 h is -3.33%. Then `O=C(Cc1ccc(F)cc1)NCCc1ccoc1`, with -5.69%; and `CCOc1ccccc1NC(=O)NCCc1ccoc1`, with 12.2%. On to `CC(C)(C)NC(=O)N1CCC(Oc2ccc(C(F)(F)F)cn2)CC1`, for which the cytotoxicity at 70.5 h is -6.24%. Then `O=C(c1cnccn1)N1CCC(Oc2ncccc2Cl)CC1`, with 4.06%; and `Cc1ccc(N2CCCC(NCc3nnc4n3CCCC4)C2=O)cc1` (stereo unspecified), with -10.2%. As for `CCn1nc2c(cc1=O)CN(Cc1nc(-c3cccnc3)no1)CC2`, the cytotoxicity at 70.5 h was -14.4%. For the compound `O=C(NCc1nn(-c2ccccc2)c2c1CCC2)NC1CCOCC1`, the cytotoxicity at 70.5 h is -0.276%. In the case of `CNC(=O)NCc1nn(-c2ccccc2)c2c1CCC2` it was -4.98%. Turning to `CN(Cc1noc(C2CC2)n1)C1CCN(Cc2ncc[nH]2)C1` (stereo unspecified), the cytotoxicity at 70.5 h was determined as 12.2%.

`CCc1cc(CNC(=O)N2CCC(Cc3cnn(C)c3)C2)on1` (stereo unspecified): the cytotoxicity at 70.5 h is -4.1%. Then `Cc1occc1CNC(=O)N1CCC(Cc2cnn(C)c2)C1` (stereo unspecified), with -2.55%; and `Cn1cc(CC2CCN(C(=O)NCc3cccc(C#N)c3)C2)cn1` (stereo unspecified), with -5%; and `COc1ccccc1CC(=O)N1CCCC(CNS(C)(=O)=O)C1` (stereo unspecified), with -9.26%. In the case of `CS(=O)(=O)NCC1CCCN(C(=O)CCCc2ccccc2)C1` (stereo unspecified) it was -8.93%. In the case of `Cc1nccn1C1CCCN(C(=O)COC2CCCC2)C1` (stereo unspecified) it was -4.55%. On to `Cc1nccn1C1CCCN(C(=O)COCC2CC2)C1` (stereo unspecified), for which the cytotoxicity at 70.5 h is -6.29%.

Take `Cc1cnn(CC2CCCN2Cc2cc(C)no2)c1` (stereo unspecified): the cytotoxicity at 70.5 h was -14%. Regarding `CCc1ocnc1C(=O)N1CCCC1c1noc(C2CC2)n1` (stereo unspecified), the cytotoxicity at 70.5 h is -9.72%. Take `CN(Cc1noc(C2CC2)n1)C1CCN(Cc2ccc(F)c(F)c2)C1` (stereo unspecified): the cytotoxicity at 70.5 h is -8.17%.

`O=C(COCC(F)(F)F)N1CCCC(n2cccn2)C1` (stereo unspecified): the cytotoxicity at 70.5 h was -8.85%.

`CNc1cc(N2CCCC2CNCc2csc(C(C)C)n2)ncn1` (stereo unspecified): the cytotoxicity at 70.5 h worked out at 28.6%. In the case of `CCn1ccnc1CN1CCCN(C(=O)c2cnn(C)c2)CC1` it was -7.1%; in that of `CC(C(=O)N1CCCN(Cc2cscn2)CC1)N1CCOCC1` (stereo unspecified), -8.05%. In the case of `CN1CCN(c2cc(CNC(=O)c3cnccn3)ccn2)CC1` it was -3.35%; in that of `Cc1cc(C(=O)NCc2ccnc(N3CCOCC3)c2)c(C)s1`, -13.9%. In the case of `CN1CCN(c2cc(CNC(=O)c3ccsc3)ccn2)CC1` it was 1%; in that of `CC(Cc1ccco1)NC(=O)Nc1ccc(N2CCCC2)nc1` (stereo unspecified), -7.87%; in that of `NC(=O)Cn1cc(NC(=O)N2CCC(c3ccccc3)CC2)cn1`, -5.24%. Consider `CC(CO)NC(=O)Nc1ccc(S(C)(=O)=O)nc1` (stereo unspecified), for which the cytotoxicity at 70.5 h was -2.27%. As to `Cc1noc(C2CCCN(C(=O)c3ccc(N(C)C)nc3)C2)n1` (stereo unspecified), the cytotoxicity at 70.5 h is -8.13%. In the case of `Cc1nc(CN2CCN(C(C)c3nc(C4CC4)no3)CC2)oc1C` (stereo unspecified) it was -3.6%. In the case of `Cc1noc(C2CCN(C(=O)Nc3ccc(N(C)C)nc3)CC2)n1` it was 1.32%. In the case of `CCn1ccnc1CN1CCCN(C(=O)c2csc(C)n2)CC1` it was -5.02%; in that of `Cc1ncc(Cl)c(C(=O)N2CCCC(n3nc(C)nc3C)C2)n1` (stereo unspecified), -6.14%; in that of `CC(C)(C)c1n[nH]c(C2CN(C(=O)CCc3ccco3)CCO2)n1` (stereo unspecified), 1.28%. Regarding `CCn1ccnc1CN1CCCN(C(=O)c2ccsc2)CC1`, the cytotoxicity at 70.5 h was -2.37%. In the case of `O=C(c1ccc(N2CCOCC2)cc1)N1CCCC(n2ccnc2)C1` (stereo unspecified) it was 20.8%. Then `Cc1nc(C)n(CC2CCCN(CC(=O)Nc3ccncc3)C2)n1` (stereo unspecified), with -5.01%; and `Cc1nc(C)n(CC2CN(Cc3cscn3)CCO2)n1` (stereo unspecified), with -6.91%. Then `O=C(c1cccc2ncccc12)N1CCCC(n2ccnc2)C1` (stereo unspecified), with -2.04%. `CC(C)Cc1noc(CN2CCN(S(C)(=O)=O)CC2)n1`: the cytotoxicity at 70.5 h is -7.6%. Then `O=C(NCc1ccoc1)Nc1cc(C(F)(F)F)c[nH]c1=O`, with 1.11%. For `COCc1cccc(CNCc2c(C(C)C)nn(C)c2N(C)C)c1`, the cytotoxicity at 70.5 h was -7.7%. Then `Cc1cc(C)c(CNC(=O)CCC2CCCO2)c(=O)[nH]1` (stereo unspecified), with -6.31%. In the case of `Cc1cc(C)n(CC2CN(Cc3cc(C)on3)CCO2)n1` (stereo unspecified) it was -3.83%. `Cn1cc(CCNCc2cc(Br)c3c(c2)OCO3)cn1`: the cytotoxicity at 70.5 h was determined as 23.7%. Then `Cc1nnc2n1CCN(C(=O)c1cc(Br)c(Cl)[nH]1)C2`, with -1.01%; and `CC(C)c1nnc2n1CCN(C(=O)c1cc(Cl)c[nH]1)C2`, with 0.408%; and `CNc1snc(C)c1C(=O)N1CCC(Nc2ccc(C)nn2)CC1`, with -3.58%. Then `Cn1nccc1C(=O)Nc1cc(C(F)(F)F)c[nH]c1=O`, with -6.13%.

Consider `O=C(COc1ccc2c(c1)CCC2)NS(=O)(=O)c1cccnc1`, for which the cytotoxicity at 70.5 h is -10.3%. In the case of `COc1cccc(OCC(=O)NS(=O)(=O)c2cccnc2)c1` it was -3.41%; in that of `Cc1nc(C)n(CC2CCCCN2CC(=O)Nc2c(C)n[nH]c2C)n1` (stereo unspecified), -1.79%; in that of `CCCc1noc(CN2CCN(CCO)CC2)n1`, -1.1%.
